In brackets after ≈: the same amount, converted by molar mass. Where two headings read alike, the source gives them in different places. Marks after values point to notes of the source that are not given here.
How the values were obtained:
[1] = system: LPS-induced pulmonary inflammasome model; assay: LPS-induced pulmonary inflammasome model (BAL cell counts, BAL IL-1β); assay type: in vivo, Sprague Dawley rats; conditions: for BAL IL-1β, average / BAL cells (%), EO (eosinophil), average / BAL cells (%), LM (lymphocytes), average / BAL cells (%), NP (neutrophils), average / BAL number cells, EO (eosinophil), average / BAL number cells, LM (lymphocytes), average / BAL number cells, NP (neutrophils), average: 24 hours, n = 4; for LPS-induced IL-1β (%): relative to LPS + IT saline = 100
Description: To compare the efficacy of intratracheal, direct-lung aerosol administration and oral gavage, the LPS-induced pulmonary inflammasome model was performed. Briefly, Sprague Dawley rats (200-250 grams) were administered a single dose of LPS by the intratracheal route (IT) using a intubation aerosol delivery device. All IT doses were delivered just above the first pulmonary bifurcation. Sham animals were treated with saline. […] Lungs were lavaged and collected bronchial lavage fluid (BAL) was assessed for total cell count, neutrophils, macrophage, eosinophils and lymphocytes. BAL was also assessed for IL-1b.

[2] = Pharmacokinetics and lung-tissue distribution after oral gavage or intratracheal aerosol; assay type: in vivo, Sprague-Dawley rats; conditions: for half-life: po, 70 mg/kg
Description: Solutions were vortexed until all crystals dissolved. […] Plasma samples were taken at pre-dose, 0.08, 0.16, 0.25, 0.5, 0.75, 1.0, 1.5, 2, 4, and 6 hours post dosing. For lung tissue samples, eight additional rats were also dosed 70 mg/kg by the oral route. Lungs were taken at pre-dose 0.08, 0.5, 2, and 4 hours post dosing. Materials were extracted and pirfenidone quantitated as μg/mL plasma and μg/gram lung tissue. […]

[3] = system: bleomycin model of pulmonary fibrosis; assay: Bleomycin model of pulmonary fibrosis (hydroxyproline, fibrosis score); assay type: in vivo, Wistar rats; conditions: for Right lung Average Hydroxyproline: days 7-28; for Average Fibrosis Score, difference from bleomycin control / Right lung Average Hydroxyproline, difference from bleomycin control: sham-subtracted
Description: To compare anti-fibrotic efficacy between extended-duration intratracheal, direct-lung aerosol administration and oral gavage, the bleomycin model of pulmonary fibrosis was performed. Doses for this study were selected based upon pharmacokinetic parameters obtained in Table 22 (from Example 8). Briefly, Wistar rats (175-225 grams) were administered bleomycin by the intratracheal route using a Penn Century MicroSprayer® catheter. On the seventh day following bleomycin exposure, animals initiated treatment with either saline or pirfenidone. Animals were dosed once a day on days 7 through 28, and euthanized on day 29. Pirfenidone was administered either intratracheally using Penn Century MicroSprayer catheter or by oral gavage. Sham and bleomycin control groups received either no treatment or intratracheal saline by Penn Century MicroSprayer catheter. While dosing more frequently (or less frequently) may improve the observed effects, anesthesia required for intratracheal administration reduced animal weight gain (reduced food intake) and, thus limited dosing to once a day for this study. Because anesthesia reduced weight gain, all study animals (intratracheal, oral and control) received once-a-day isoflurane using the same technique and duration. Twelve animals were enrolled into each dosing group. […] Oral gavage was administered in a single 300 mcL volume. Due to technical restrictions, instead of the mg/kg dose being equally split between six 50 mcL administrations over 2 minutes, intratracheal administration was performed with three equal 50 mcL volumes administered every 40 seconds over the same period. For dose selection, data from Table 22 was extrapolated. On day 29, animals were euthanized. Right lungs were extracted and measured for hydroxyproline content, while left lungs were subjected to histology. Histological sections were stained with picrosirius red and scored for lung tissue fibrosis. Twenty random photographs of each stained lung tissue section were taken, blinded and scored by an independent review panel. Observations were pooled for analysis.

[4] = system: inflammasome activation in 264.7 macrophages; assay: Inflammasome first signal activation (LPS, secreted IL-1β); assay type: cell-based; conditions: Macrophage; read-out: fifty-percent inhibitory concentration (IC50), first-signal inflammasome activation
CYP1A2 = biological target: T1, CYP1A2 (Homo sapiens, UniProt P05177); conditions: hepatic microsomes; cited from earlier work
T1 construct: In vitro metabolism studies with hepatic microsomes; from tissue; host or cells: hepatic microsomes

2D6 = biological target: T2, 2D6 (Homo sapiens, UniProt P10635); conditions: hepatic microsomes; cited from earlier work
T2 construct: In vitro metabolism studies with hepatic microsomes; from tissue; host or cells: hepatic microsomes

[5] = cited from earlier work; for Cmax: read-out: oral Cmax in IPF patients
2E1 = biological target: T3, 2E1 (Homo sapiens, UniProt P05181); conditions: hepatic microsomes; cited from earlier work
T3 construct: In vitro metabolism studies with hepatic microsomes; from tissue; host or cells: hepatic microsomes

[6] = 0.5 mg/kg intratracheal, single dose with LPS, BAL after 24 hours
[7] = 30 mg/kg oral gavage 2 hours before LPS (60-fold larger dose)
[8] = LPS + PO pirfenidone 30.0 mg/kg
[9] = Bleomycin + IT pirfenidone 0.9 mg/kg
[10] = Bleomycin + IT pirfenidone 3.0 mg/kg
[11] = Bleomycin + IT pirfenidone 6.4 mg/kg
[12] = Bleomycin + PO pirfenidone 30 mg/kg
[13] = Bleomycin + PO pirfenidone 100 mg/kg

T2 sequence (P10635 whole entry): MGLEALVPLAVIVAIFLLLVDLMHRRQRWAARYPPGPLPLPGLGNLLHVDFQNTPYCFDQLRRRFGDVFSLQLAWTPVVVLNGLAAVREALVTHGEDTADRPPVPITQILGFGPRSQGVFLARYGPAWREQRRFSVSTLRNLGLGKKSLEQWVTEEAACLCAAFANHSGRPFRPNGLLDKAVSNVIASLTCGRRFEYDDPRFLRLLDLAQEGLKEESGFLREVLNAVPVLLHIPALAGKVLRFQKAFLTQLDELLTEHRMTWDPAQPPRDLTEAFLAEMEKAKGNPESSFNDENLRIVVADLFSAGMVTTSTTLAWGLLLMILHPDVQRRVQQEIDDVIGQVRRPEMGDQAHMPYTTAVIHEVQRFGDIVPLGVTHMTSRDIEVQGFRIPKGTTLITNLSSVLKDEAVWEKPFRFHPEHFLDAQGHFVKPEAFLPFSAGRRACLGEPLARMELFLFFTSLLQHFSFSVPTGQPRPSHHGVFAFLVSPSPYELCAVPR
T1 sequence (P05177 whole entry): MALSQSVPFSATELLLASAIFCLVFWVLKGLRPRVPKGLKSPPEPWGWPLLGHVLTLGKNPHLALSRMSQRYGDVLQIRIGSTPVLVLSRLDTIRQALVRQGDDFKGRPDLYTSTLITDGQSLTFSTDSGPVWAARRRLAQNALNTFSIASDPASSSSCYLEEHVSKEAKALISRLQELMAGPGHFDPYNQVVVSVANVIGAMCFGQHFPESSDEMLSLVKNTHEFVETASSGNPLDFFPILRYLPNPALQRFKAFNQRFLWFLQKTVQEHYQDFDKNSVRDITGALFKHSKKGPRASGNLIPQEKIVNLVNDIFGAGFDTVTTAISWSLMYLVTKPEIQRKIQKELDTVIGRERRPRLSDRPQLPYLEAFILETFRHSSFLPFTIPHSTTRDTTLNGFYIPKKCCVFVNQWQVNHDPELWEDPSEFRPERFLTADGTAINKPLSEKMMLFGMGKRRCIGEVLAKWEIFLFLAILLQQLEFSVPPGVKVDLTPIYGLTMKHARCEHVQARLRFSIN
T3 sequence (P05181 whole entry): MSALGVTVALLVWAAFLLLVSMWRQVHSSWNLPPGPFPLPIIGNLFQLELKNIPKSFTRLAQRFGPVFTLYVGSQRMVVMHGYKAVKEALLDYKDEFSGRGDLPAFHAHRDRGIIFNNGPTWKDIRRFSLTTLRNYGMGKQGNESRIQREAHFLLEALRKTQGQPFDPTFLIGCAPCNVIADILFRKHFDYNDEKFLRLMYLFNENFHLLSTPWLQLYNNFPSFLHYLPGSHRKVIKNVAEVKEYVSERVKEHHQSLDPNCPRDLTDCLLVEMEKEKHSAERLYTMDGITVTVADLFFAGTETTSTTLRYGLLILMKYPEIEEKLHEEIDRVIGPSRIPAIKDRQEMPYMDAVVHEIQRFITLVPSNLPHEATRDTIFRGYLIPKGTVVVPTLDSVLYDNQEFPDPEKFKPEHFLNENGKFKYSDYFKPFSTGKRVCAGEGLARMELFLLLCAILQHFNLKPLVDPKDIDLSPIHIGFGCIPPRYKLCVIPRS

Cc1ccc(=O)n(-c2ccccc2)c1 [pirfenidone, 5-methyl-1-phenyl-2-(1H)-pyridone]
lung tissue Cmax (estimated) ([1]; 0.5 mg/kg IT): ~83 mcg/gram | LPS-induced inflammatory cell infiltration (BAL) [1, 6]: negated | reduction of LPS-induced BAL IL-1β levels [1, 6]: 62% | effect on LPS-induced BAL IL-1β levels [1, 7]: no effect | effect on LPS-induced inflammatory cell infiltration (BAL) [1, 7]: no effect | BAL IL-1β, average ([1]; LPS + IT pirfenidone 0.5 mg/kg): 36.2 pg/mL | BAL cells (%), EO (eosinophil), average ([1]; LPS + IT pirfenidone 0.5 mg/kg): 0.7% | BAL cells (%), LM (lymphocytes), average ([1]; LPS + IT pirfenidone 0.5 mg/kg): 1.0% | BAL cells (%), NP (neutrophils), average ([1]; LPS + IT pirfenidone 0.5 mg/kg): 13.0% | BAL number cells, EO (eosinophil), average ([1]; LPS + IT pirfenidone 0.5 mg/kg): 0.0 1 × 10e5 | BAL number cells, LM (lymphocytes), average ([1]; LPS + IT pirfenidone 0.5 mg/kg): 0.1 1 × 10e5 | BAL number cells, NP (neutrophils), average ([1]; LPS + IT pirfenidone 0.5 mg/kg): 0.7 1 × 10e5 | LPS-induced IL-1β (%) ([1]; LPS + IT pirfenidone 0.5 mg/kg): 38% | BAL IL-1β, average [1, 8]: 105.9 pg/mL | BAL cells (%), EO (eosinophil), average [1, 8]: 0.6% | BAL cells (%), LM (lymphocytes), average [1, 8]: 0.9% | BAL cells (%), NP (neutrophils), average [1, 8]: 36.4% | BAL number cells, EO (eosinophil), average [1, 8]: 0.3 1 × 10e5 | BAL number cells, LM (lymphocytes), average [1, 8]: 0.3 1 × 10e5 | BAL number cells, NP (neutrophils), average [1, 8]: 13.2 1 × 10e5 | LPS-induced IL-1β (%) [1, 8]: 113% | half-life ([2]; Sprague-Dawley, rat, lung, read-out: Lung T1/2 α (only α observed)): 45 min | half-life ([2]; Sprague-Dawley, rat, plasma, read-out: Plasma T1/2): 30 min | Cmax ([2]; Sprague-Dawley, rat, plasma, oral 70 mg/kg): 8100 ng/mL | AUC(0-t) ([2]; Sprague-Dawley, rat, plasma, oral 70 mg/kg, read-out: Plasma AUC0-6 hrs): 13500 ng·h/mL | Lung Cmax ([2]; oral 70 mg/kg): 3.6 µg/g | Lung TOE, time of exposure over 1 μg/g lung tissue ([2]; oral 70 mg/kg): 89 min | possible lung tissue Cmax ([3]; 0.9 mg/kg dose to 250 gram rat, lung about 1.5 grams, whole dose): ≤ 150 mcg/gram | possible lung tissue Cmax ([3]; 0.9 mg/kg intratracheal dose divided into thirds): about 50 mcg/gram lung tissue | anti-fibrotic efficacy ([3]; 3.0 mg/kg intratracheal, direct lung aerosol, once a day days 7-28): no observed pirfenidone efficacy | Average Fibrosis Score, Picrosirius Red-stained left lung sections [3, 9]: 2.88* | Lung Tissue AUC0-2 hrs [3, 9]: 2.6 µg·h/g | Lung Tissue Cmax [3, 9]: 11.6 µg/g | Right lung Average Hydroxyproline ([3]; Bleomycin + IT pirfenidone 0.9 mg/kg once a day): 2.88* mg/right lung | Average Fibrosis Score, difference from bleomycin control [3, 9]: −0.53*, **** | Right lung Average Hydroxyproline, difference from bleomycin control [3, 9]: −0.70*, **** mg/right lung | Average Fibrosis Score, Picrosirius Red-stained left lung sections [3, 10]: 3.66 | Lung Tissue AUC0-2 hrs [3, 10]: 7.3 µg·h/g | Lung Tissue Cmax [3, 10]: 33.5 µg/g | Right lung Average Hydroxyproline ([3]; Bleomycin + IT pirfenidone 3.0 mg/kg once a day): 3.56 mg/right lung | Average Fibrosis Score, difference from bleomycin control [3, 10]: 0.26***, **** | Right lung Average Hydroxyproline, difference from bleomycin control [3, 10]: −0.02**, **** mg/right lung | Average Fibrosis Score, Picrosirius Red-stained left lung sections [3, 11]: 3.47 | Lung Tissue AUC0-2 hrs [3, 11]: 15.5 µg·h/g | Lung Tissue Cmax [3, 11]: 71.5 µg/g | Right lung Average Hydroxyproline ([3]; Bleomycin + IT pirfenidone 6.4 mg/kg once a day): 3.50 mg/right lung | Average Fibrosis Score, difference from bleomycin control [3, 11]: 0.07**, **** | Right lung Average Hydroxyproline, difference from bleomycin control [3, 11]: −0.08***, **** mg/right lung | Average Fibrosis Score, Picrosirius Red-stained left lung sections [3, 12]: 3.11 | Lung Tissue AUC0-2 hrs [3, 12]: 18.2 µg·h/g | Lung Tissue Cmax [3, 12]: 11.8 µg/g | Right lung Average Hydroxyproline ([3]; Bleomycin + PO pirfenidone 30 mg/kg once a day): 3.65 mg/right lung | Average Fibrosis Score, difference from bleomycin control [3, 12]: 0.68*, ** | Right lung Average Hydroxyproline, difference from bleomycin control [3, 12]: 0.43*, ** mg/right lung | Average Fibrosis Score, Picrosirius Red-stained left lung sections [3, 13]: 3.61 | Lung Tissue AUC0-2 hrs [3, 13]: 34.4 µg·h/g | Lung Tissue Cmax [3, 13]: 33.6 µg/g | Right lung Average Hydroxyproline ([3]; Bleomycin + PO pirfenidone 100 mg/kg once a day): 3.73 mg/right lung | Average Fibrosis Score, difference from bleomycin control [3, 13]: 1.18*** | Right lung Average Hydroxyproline, difference from bleomycin control [3, 13]: 0.51*** mg/right lung | anti-fibrotic efficacy (fibrosis, hydroxyproline), direct lung versus oral ([3]; intratracheal aerosol versus oral gavage): more efficacious | IC50 [4]: ~25 µg/mL (≈ 135 µM) | pirfenidone metabolised via CYP1A2 (CYP1A2): approximately 48% | contribution to pirfenidone metabolism (2D6): less than 13% | time plasma level at or greater than 5 mcg/mL ([5]; 801 mg oral pirfenidone, human-measured value): 4 h | oral Cmax in IPF patients ([5]; fasting-state): about 15.7 mcg/mL | Cmax ([5]; fasting-state): ~84 µM | increase in Tmax ([5]; oral, fed-state): seven-fold | reduction in Cmax ([5]; oral, fed-state): ~50% | reduction in overall exposure ([5]; oral, fed-state): 10-15% | oral Cmax in IPF patients ([5]; recommended fed-state): about 7.9 mcg/mL | Cmax ([5]; recommended fed-state): ~42 µM | contribution to pirfenidone metabolism (2E1): less than 13%
